Test results: PMC4783179 (The Journal of comparative neurology, 2015)
Several values for one entry are separate records, joined by “and”; a condition that tells them apart may be missing. Identical values can stand only once. Like-named read-outs stand apart in the source and are kept apart here.

Legend:
5-HT1A receptors = conditions: ref Wooten et al., cited from earlier work
[1] = rat, in vivo; cited from earlier work
rabbits [2] = conditions: intravenous, 14 consecutive days, ref PDSP data base; cited from earlier work
rabbits [3] = assay: 14-Day Toxicity Study of FCWAY, intravenous; assay type: in vivo; conditions: from rabbit 0.3 mg/kg/day
[4] = tested on: hippocampal extracellular serotonin levels; conditions: mice; ref Whittington and Virag, 2006; cited from earlier work
[5] = tested on: serotonin release in the rat frontal cortex; conditions: ref Mukaida et al., 2007; cited from earlier work
[6] = humans, baseline and with disulfiram; ref Ryu et al., 2007; cited from earlier work
[7] = humans, with disulfiram; ref Ryu et al., 2007; cited from earlier work
human P-glycoprotein = conditions: cited from earlier work
human = conditions: ref PDSP data base; cited from earlier work

Question: For `COc1ccccc1N1CCN(CCN(C(=O)C2CCC(CF)CC2)c2ccccn2)CC1` (single isomer, unassigned) [cis-isomer of Mefway], which “Binding compared to trans-isomer” value (5-HT1A receptors; 2011a) is on record?
Answer: lower binding

Question: For `COc1ccccc1N1CCN(CCN(C(=O)C2CCCC(CF)C2)c2ccccn2)CC1` (stereo not drawn) [3-Mefway analog], which “In vivo binding properties compared to 4-Mefway” value (5-HT1A receptors; 2014) is on record?
Answer: lower in vivo binding properties

Question: Which “Brain penetration and retention” value [1] does the source give for `O=C(O)[C@H]1CC[C@H](C[18F])CC1` [^18F-FMCHA] here?
Answer: poor penetration and retention

Question: What does the source list for `COc1ccccc1N1CCN(CCN(C(=O)C2CCC(F)CC2)c2ccccn2)CC1` (stereo not drawn) [FCWAY]?
Answer: No-effect level (rabbits [2]): 0.3 mg/kg body weight/day; Human equivalent dose (HED) of the no-effect level (rabbits [3]): 0.097 mg/kg

Question: With `FC(F)OC(Cl)C(F)(F)F` (stereo not drawn) [Isoflurane] as the compound, how does the “Hippocampal extracellular serotonin levels” value [4] read?
Answer: < 40 % of baseline

Question: And the “Serotonin release, frontal cortex” value [5]?
Answer: < 40 % of awake state

Question: For `COc1ccccc1N1CCN(CCN(C(=O)C2CCC([18F])CC2)c2ccccn2)CC1` (stereo not drawn) [^18F-FCWAY], which Plasma free fraction [6] is on record?
Answer: 13% and ~ 13%

Question: What about the “Decrease of plasma clearance compared to baseline” value [7] of the same compound?
Answer: 47%

Question: Which “Substrate of human P-glycoprotein” value (human P-glycoprotein; ref Tournier et al., 2011) does the source give for `COc1ccccc1N1CCN(CCN(C(=O)C2CCCCC2)c2ccccn2)CC1` [WAY-100635, N-{2-[4-(2-methoxyphenyl)piperazin-1-yl]ethyl}-N-(pyridine-2-yl)cyclohexanecarboxamide] here?
Answer: not being suitable substrates

Question: And the “Daily dose safely used in human” value (human)?
Answer: up to 700 μg/kg

Question: Which “Substrate of human P-glycoprotein” value (human P-glycoprotein) does the source give for `COc1ccccc1N1CCN(CCN(C(=O)c2ccc(F)cc2)c2ccccn2)CC1` [MPPF] here?
Answer: not being suitable substrates
